The values below come from ChEMBL document CHEMBL4402543, “Bioisosteric Development of Multitarget Nonsteroidal Anti-Inflammatory Drug-Carbonic Anhydrases Inhibitor Hybrids for the Management of Rheumatoid Arthritis” (J Med Chem, 2020).

A short description of data set [1]: Stability in PBS. Format: physicochemical. To be noted: buffer.
The nature of data set [2]: Half life in human plasma by LC-MS/MS analysis. The class given is ADME, cell-free.
A short description of data set [3]: Half life in Sprague-Dawley rat plasma by LC-MS/MS analysis. Format: ADME, cell-free.
Data set [4] concerns the target COX1 (Prostaglandin G/H synthase 1) (Homo sapiens, UniProt P23219). Kind of data set: Inhibition of COX1 in human platelet rich plasma in assessed as inhibition of ADP-induced platelet aggregation at 10 uM incubated for 5 mins by turbidimetry based Born's method relative to control.
The target of data set [5] is T1, Prostaglandin G/H synthase 2 (Mus musculus) (UniProt Q05769).
T1 sequence (whole entry): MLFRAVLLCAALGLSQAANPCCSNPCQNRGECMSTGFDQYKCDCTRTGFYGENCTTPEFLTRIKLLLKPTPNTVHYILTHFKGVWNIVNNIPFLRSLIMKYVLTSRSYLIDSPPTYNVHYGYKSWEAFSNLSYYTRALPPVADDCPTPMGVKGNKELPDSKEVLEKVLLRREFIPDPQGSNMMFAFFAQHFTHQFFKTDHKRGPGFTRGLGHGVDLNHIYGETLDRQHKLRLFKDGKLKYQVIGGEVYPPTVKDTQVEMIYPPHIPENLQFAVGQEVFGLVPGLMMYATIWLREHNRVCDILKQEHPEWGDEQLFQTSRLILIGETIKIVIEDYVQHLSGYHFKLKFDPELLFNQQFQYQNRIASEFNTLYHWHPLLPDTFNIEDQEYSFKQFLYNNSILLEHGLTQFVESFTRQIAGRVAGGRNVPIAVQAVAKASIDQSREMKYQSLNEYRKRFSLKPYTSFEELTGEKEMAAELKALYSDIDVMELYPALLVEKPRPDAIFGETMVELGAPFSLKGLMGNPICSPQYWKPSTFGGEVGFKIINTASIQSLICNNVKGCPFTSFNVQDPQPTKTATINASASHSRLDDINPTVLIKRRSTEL
Kind of data set: Inhibition of COX2 in mouse RAW264.7 cells assessed as reduction in LPS-induced inflammation by measuring reduction in PGE2 level at 100 uM treated 1 hr after LPS stimulation and measured after 18 hrs by ELISA relative to control. The class given is cell-based. On the technique in general: In an ELISA, binding on a coated surface is turned into a signal by an enzyme label.

In data set [6] the target is Carbonic anhydrase 4 (Homo sapiens) (UniProt P22748).
Description: Inhibition of human CA4 pre-incubated for 6 hrs by stopped- flow CO2 hydrase assay method based Cheng-Prusoff equation analysis
Data set [7] has as its target Carbonic anhydrase 7 (Homo sapiens) (UniProt P43166).
Description: Inhibition of human CA7 pre-incubated for 6 hrs by stopped- flow CO2 hydrase assay method based Cheng-Prusoff equation analysis
Data set [8] has as its target Carbonic anhydrase 1 (Homo sapiens) (UniProt P00915).
Description: Inhibition of human CA1 pre-incubated for 6 hrs by stopped- flow CO2 hydrase assay method based Cheng-Prusoff equation analysis
Data set [9] concerns the target Carbonic anhydrase 2 (Homo sapiens) (UniProt P00918).
Description: Inhibition of human CA2 pre-incubated for 6 hrs by stopped- flow CO2 hydrase assay method based Cheng-Prusoff equation analysis
Data set [10] deals with Carbonic anhydrase 9 (Homo sapiens) (UniProt Q16790).
Description: Inhibition of human CA9 pre-incubated for 6 hrs by stopped- flow CO2 hydrase assay method based Cheng-Prusoff equation analysis
Data set [11] has as its target Carbonic anhydrase 12 (Homo sapiens) (UniProt O43570).
Description: Inhibition of human CA12 pre-incubated for 6 hrs by stopped- flow CO2 hydrase assay method based Cheng-Prusoff equation analysis
Data set [12] addresses T1, Prostaglandin G/H synthase 2 (Mus musculus). Kind of data set: Inhibition of COX2 in mouse RAW264.7 cells assessed as reduction in LPS-induced inflammation by measuring reduction in PGE2 level at 1 uM treated 1 hr after LPS stimulation and measured after 18 hrs by ELISA relative to control. Format: cell-based.
For data set [13], the system named is Rattus norvegicus. Kind of data set: Antihyperalgesic activity in Sprague-Dawley rat model of Complete freund's adjuvant-induced arthritis assessed as increase in pain threshold of ipsilateral paw at 10 mg/kg, po starting from day 14 after CFA injection and measured at 0 to 60 mins by paw pressure test. Format: functional, organism-based.
In data set [14] the test system is Rattus norvegicus. The data set is described as follows: Antihyperalgesic activity in Sprague-Dawley rat model of Complete freund's adjuvant-induced arthritis assessed as increase in pain threshold of ipsilateral paw at 100 mg/kg, po starting from day 14 after CFA injection and measured at 15 mins by paw pressure test. Format: functional, organism-based.
Data set [15] relates to Rattus norvegicus. Kind of data set: Antihyperalgesic activity in Sprague-Dawley rat model of Complete freund's adjuvant-induced arthritis assessed as increase in pain threshold of ipsilateral paw at 30 mg/kg, po starting from day 14 after CFA injection and measured at 15 to 30 mins by paw pressure test. The class given is functional, organism-based.
The test system of data set [16] is Rattus norvegicus. Kind of data set: Antihyperalgesic activity in Sprague-Dawley rat model of Complete freund's adjuvant-induced arthritis assessed as reduction in difference between weight burdened on contralateral and ipsilateral paw at 30 mg/kg, po starting from day 14 after CFA injection and measured at 30 mins incapacitance test. Format: functional, organism-based.

Data set [17] deals with Rattus norvegicus. The data set is described as follows: Antihyperalgesic activity in Sprague-Dawley rat model of Complete freund's adjuvant-induced arthritis assessed as reduction in difference between weight burdened on contralateral and ipsilateral paw at 30 mg/kg, po starting from day 14 after CFA injection and measured at 15 to 30 mins incapacitance test. The class given is functional, organism-based.

Data set [18] relates to Rattus norvegicus. Kind of data set: Antihyperalgesic activity in Sprague-Dawley rat model of Complete freund's adjuvant-induced arthritis assessed as reduction in difference between weight burdened on contralateral and ipsilateral paw at 30 mg/kg, po starting from day 14 after CFA injection and measured at 15 mins incapacitance test. Format: functional, organism-based.

Data set [19] deals with Rattus norvegicus. The data set is described as follows: Antihyperalgesic activity in Sprague-Dawley rat model of Complete freund's adjuvant-induced arthritis assessed as reduction in difference between weight burdened on contralateral and ipsilateral paw at 30 mg/kg, po starting from day 14 after CFA injection and measured at 45 mins incapacitance test. The class given is functional, organism-based.

The structures appear in SMILES notation. Calls of active or inactive are those of the source. A value given as a limit tells only on which side of the number the result lay.

Sequence of COX1 (Prostaglandin G/H synthase 1) (P23219 whole entry): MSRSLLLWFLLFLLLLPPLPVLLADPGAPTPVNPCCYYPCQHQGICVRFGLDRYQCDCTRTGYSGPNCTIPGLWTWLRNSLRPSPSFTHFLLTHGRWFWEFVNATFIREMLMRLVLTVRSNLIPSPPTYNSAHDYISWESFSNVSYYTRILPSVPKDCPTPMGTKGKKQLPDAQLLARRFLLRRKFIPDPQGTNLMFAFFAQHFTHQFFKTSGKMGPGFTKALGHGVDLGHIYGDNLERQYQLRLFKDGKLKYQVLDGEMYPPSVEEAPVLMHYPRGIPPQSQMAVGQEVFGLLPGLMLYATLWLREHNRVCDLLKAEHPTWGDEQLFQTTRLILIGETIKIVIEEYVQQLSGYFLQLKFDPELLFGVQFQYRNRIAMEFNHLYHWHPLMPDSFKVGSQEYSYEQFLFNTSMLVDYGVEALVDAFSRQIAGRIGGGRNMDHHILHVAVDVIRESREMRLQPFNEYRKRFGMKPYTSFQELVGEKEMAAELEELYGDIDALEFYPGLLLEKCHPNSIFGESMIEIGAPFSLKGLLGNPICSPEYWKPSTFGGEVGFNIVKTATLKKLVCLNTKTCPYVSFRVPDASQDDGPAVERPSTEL
Sequence of Carbonic anhydrase 4 (Homo sapiens) (P22748 whole entry): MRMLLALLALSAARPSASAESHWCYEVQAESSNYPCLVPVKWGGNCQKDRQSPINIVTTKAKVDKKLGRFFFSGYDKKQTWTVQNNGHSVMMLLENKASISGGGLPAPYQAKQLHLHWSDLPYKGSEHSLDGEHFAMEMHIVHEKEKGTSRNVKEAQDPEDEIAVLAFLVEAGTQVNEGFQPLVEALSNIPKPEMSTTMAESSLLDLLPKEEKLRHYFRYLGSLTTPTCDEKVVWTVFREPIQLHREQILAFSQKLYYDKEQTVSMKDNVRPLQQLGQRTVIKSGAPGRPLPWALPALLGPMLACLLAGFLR
Sequence of Carbonic anhydrase 1 (Homo sapiens) (P00915 2-261 limits assumed): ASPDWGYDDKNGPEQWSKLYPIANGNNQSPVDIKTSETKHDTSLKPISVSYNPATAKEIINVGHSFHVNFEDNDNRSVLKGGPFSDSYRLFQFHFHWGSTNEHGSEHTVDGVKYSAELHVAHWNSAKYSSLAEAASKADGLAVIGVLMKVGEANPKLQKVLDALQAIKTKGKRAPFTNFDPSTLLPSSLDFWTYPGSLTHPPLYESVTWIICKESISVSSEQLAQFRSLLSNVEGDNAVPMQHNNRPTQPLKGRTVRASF
Sequence of Carbonic anhydrase 7 (Homo sapiens) (P43166 whole entry): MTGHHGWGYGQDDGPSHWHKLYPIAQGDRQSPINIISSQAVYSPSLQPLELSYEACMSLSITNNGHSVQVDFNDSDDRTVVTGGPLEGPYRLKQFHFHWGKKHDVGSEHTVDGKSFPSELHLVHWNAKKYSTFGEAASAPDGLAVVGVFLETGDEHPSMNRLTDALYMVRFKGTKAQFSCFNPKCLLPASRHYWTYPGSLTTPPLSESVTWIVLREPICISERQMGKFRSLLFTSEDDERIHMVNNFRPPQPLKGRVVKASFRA
Sequence of Carbonic anhydrase 12 (Homo sapiens) (O43570 whole entry): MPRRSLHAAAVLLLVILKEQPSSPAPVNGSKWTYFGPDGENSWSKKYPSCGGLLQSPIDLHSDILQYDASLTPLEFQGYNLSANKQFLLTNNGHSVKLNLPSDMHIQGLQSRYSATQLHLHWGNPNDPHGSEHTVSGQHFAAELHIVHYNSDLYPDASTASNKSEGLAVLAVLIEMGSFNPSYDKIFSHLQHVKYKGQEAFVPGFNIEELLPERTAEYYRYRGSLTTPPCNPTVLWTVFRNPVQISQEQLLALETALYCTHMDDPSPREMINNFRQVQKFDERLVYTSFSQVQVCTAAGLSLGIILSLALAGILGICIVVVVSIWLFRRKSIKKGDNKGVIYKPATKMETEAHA

Consider `CC(C(=O)OCCOc1ccc2ccc(=O)oc2c1)c1ccc(-c2ccccc2)c(F)c1` (racemic), for which, in [1], the Stability entry is listed as “Stable”. The half-life (in general, the time in which the quantity being followed falls by half) in data set [2] is over 4 h; in data set [3], 0.04 h.
The corresponding values for `CC1=C(CC(=O)OCCOc2ccc3oc(=O)ccc3c2)c2cc(F)ccc2/C1=C\c1ccc([S+](C)[O-])cc1` (stereo not given) are “Stable”, over 4 h and 0.0917 h.
Take `COc1ccc2c(c1)c(CC(=O)OCCOc1ccc3oc(=O)ccc3c1)c(C)n2C(=O)c1ccc(Cl)cc1`: in data set [1], the Stability result is given as “Stable”. For the same molecule, the half-life in data set [2] was over 4 h; in data set [3], 0.0467 h.
Turning to `CC1=C(CC(=O)NCCOc2ccc3ccc(=O)oc3c2)c2cc(F)ccc2/C1=C\c1ccc([S+](C)[O-])cc1` (stereo not given), the half-life in data set [2] and in [3] was over 4 h in each case.
Take `O=C(Cc1ccccc1Nc1c(Cl)cccc1Cl)NCCOc1ccc2oc(=O)ccc2c1`: the inhibition (as a rule, the drop in the measured response relative to a control, in per cent) at 5 min, 10 µM in data set [4] lay in the range of 5 to 30%. The inhibition in data set [5] came out at 75%. Further, the half-life in data set [2] and in [3] was over 4 h in each case.
On to `CC(C)Cc1ccc(C(C)C(=O)OCCOc2ccc3ccc(=O)oc3c2)cc1` (racemic), for which the Stability result in [1] is recorded as “Stable”. In [4], the inhibition at 5 min, 10 µM was in the range of 5 to 30%. Besides, the figures for the half-life in [2] and in [3] were over 4 h and 0.0533 h, respectively. Moreover, the Ki (usually the equilibrium dissociation constant of an inhibitor or competing ligand from its target) is 6.5 nM in data set [6]; over 10000 nM in [7]; over 10000 nM in data set [8]; over 10000 nM in data set [9]; 3.9 nM in data set [10]; 5.3 nM in data set [11].
Consider `COc1ccc2c(c1)c(CC(=O)OCCOc1ccc3ccc(=O)oc3c1)c(C)n2C(=O)c1ccc(Cl)cc1`, for which the Stability result in data set [1] was “Stable”. For the same molecule, the half-life in data set [2] is over 4 h; in [3], 0.0333 h.
In the case of `CC1=C(CC(=O)OCCOc2ccc3ccc(=O)oc3c2)c2cc(F)ccc2/C1=C\c1ccc([S+](C)[O-])cc1` (stereo not given), in data set [1], the Stability result is on record as “Stable”. Also, the half-life in [2] was over 4 h; in data set [3] it was 0.277 h.
Take `CC(C)Cc1ccc(C(C)C(=O)OCCOc2ccc3oc(=O)ccc3c2)cc1` (racemic): the Stability result in data set [1] was “Stable”. Also, the inhibition at 5 min, 10 µM in [4] lay within 5 to 30%. Moreover, the half-life in data set [2] was over 4 h; in data set [3], 0.0583 h. The Ki is 3.6 nM in [6]; over 10000 nM in data set [7]; over 10000 nM in data set [8]; over 10000 nM in [9]; 25.3 nM in data set [10]; 459 nM in [11].
In the case of `COc1ccc2c(c1)c(CC(=O)NCCOc1ccc3ccc(=O)oc3c1)c(C)n2C(=O)c1ccc(Cl)cc1`, the half-life in data set [2] and in data set [3] was over 4 h in each case.
Take `O=C(Cc1ccccc1Nc1c(Cl)cccc1Cl)OCCOc1ccc2oc(=O)ccc2c1`: in data set [1], the Stability entry is on record as “Stable”. The half-life in data set [2] was 0.533 h; in data set [3], under 0.0167 h.
`CC(C)Cc1ccc(C(C)C(=O)NCCOc2ccc3oc(=O)ccc3c2)cc1` (stereo not given): the inhibition at 5 min, 10 µM in [4] was 5 to 30%. Besides, the half-life in data set [2] and in data set [3] was over 4 h in each case.
As to `CC(C(=O)OCCOc1ccc2oc(=O)ccc2c1)c1ccc(-c2ccccc2)c(F)c1` (racemic), the Stability result in data set [1] is on record as “Stable”. Further, the values for the half-life in [2] and in [3] were over 4 h and 0.0217 h, respectively.
The matching figures for `COc1ccc2cc([C@H](C)C(=O)OCCOc3ccc4ccc(=O)oc4c3)ccc2c1`: “Stable”, over 4 h and under 0.0167 h.
For the molecule `CC(C(=O)NCCOc1ccc2ccc(=O)oc2c1)c1cccc(C(=O)c2ccccc2)c1` (stereo not given), the half-life in data set [2] and in [3] was over 4 h each time.
`COc1ccc2cc([C@H](C)C(=O)NCCOc3ccc4oc(=O)ccc4c3)ccc2c1`: the half-life in [2] and in data set [3] was over 4 h in each case.
Consider `COc1ccc2cc([C@H](C)C(=O)OCCOc3ccc4oc(=O)ccc4c3)ccc2c1`, for which the Stability entry in [1] is “Stable”. For the same molecule, the values for the half-life in data set [2] and in [3] were over 4 h and 0.0183 h, respectively.
The corresponding values for `O=C(Cc1ccccc1Nc1c(Cl)cccc1Cl)OCCOc1ccc2ccc(=O)oc2c1` are “Stable”, 0.3 h and under 0.0167 h.
Take `CC1=C(CC(=O)NCCOc2ccc3oc(=O)ccc3c2)c2cc(F)ccc2/C1=C\c1ccc([S+](C)[O-])cc1` (stereo not given): the half-life in data set [2] and in data set [3] was over 4 h throughout.
As for `O=C(Cc1ccccc1Nc1c(Cl)cccc1Cl)NCCOc1ccc2ccc(=O)oc2c1`, the inhibition at 5 min, 10 µM in [4] was over 15%. For the same molecule, the half-life in [2] and in data set [3] was over 4 h throughout.
With `CC(C(=O)NCCOc1ccc2oc(=O)ccc2c1)c1ccc(-c2ccccc2)c(F)c1` (stereo not given), the half-life in data set [2] and in data set [3] was over 4 h in each case.
In the case of `CC(C(=O)NCCOc1ccc2oc(=O)ccc2c1)c1cccc(C(=O)c2ccccc2)c1` (stereo not given), the half-life in data set [2] and in [3] was over 4 h each time.
Regarding `CC(C(=O)NCCOc1ccc2ccc(=O)oc2c1)c1ccc(-c2ccccc2)c(F)c1` (stereo not given), the half-life in data set [2] and in data set [3] was over 4 h each time.
For the molecule `CC(C)Cc1ccc(C(C)C(=O)NCCOc2ccc3ccc(=O)oc3c2)cc1` (stereo not given), the inhibition at 5 min, 10 µM in [4] is 5 to 30%. The inhibition entry in [5] and in data set [12] was “Active” each time. In addition, in the data set on Rattus norvegicus [13], the outcome was Active. Further, the half-life in data set [2] and in data set [3] was over 4 h each time.
`O=C(O)Cc1ccccc1Nc1c(Cl)cccc1Cl` [DICLOFENAC]: the inhibition at 5 min, 10 µM in data set [4] was 15%.
As to `CC(C)Cc1ccc(C(C)C(=O)O)cc1` (stereo not given) [IBUPROFEN], the inhibition at 5 min, 10 µM in data set [4] was over 60%. In the data set on Rattus norvegicus [14], the outcome was Active.
Consider `COc1ccc2cc([C@H](C)C(=O)NCCOc3ccc4ccc(=O)oc4c3)ccc2c1`, for which the half-life in [2] and in data set [3] was over 4 h in each case.
For `COc1ccc2c(c1)c(CC(=O)NCCOc1ccc3oc(=O)ccc3c1)c(C)n2C(=O)c1ccc(Cl)cc1`, the half-life in data set [2] and in data set [3] was over 4 h each time.
With `CC(C(=O)O)c1cccc(C(=O)c2ccccc2)c1` (stereo not given) [KETOPROFEN], the inhibition at 5 min, 10 µM in data set [4] was found to be 25%. The outcome in the data set on Rattus norvegicus [15], in the data set on Rattus norvegicus [17] and in the data set on Rattus norvegicus [18] was Active. Also, the outcome in the data set on Rattus norvegicus [16] and in the data set with Rattus norvegicus [19] was inactive.
